Data taken from patent US20090062255A1, “TUMOR-TARGETING EVALUATION METHODOLOGY AND COMPOUNDS RELATED THERETO” (THALLION PHARMACEUTICALS INC., priority 2007, published 2009).

Experiments:
[1] = tested on: Acyl CoA-Cholesterol Acyltransferase (ACAT); test: ACAT enzyme assay; type: biochemical, rat; conditions: 10 μM compound, 1% DMSO
Description: Acyl CoA-Cholesterol Acyltransferase (ACAT) converts cholesterol to cholesteryl esters and is involved in the development of artherioscerosis.
(§1) The procedures used were based on known assays: ACAT (from rat; Ref: Largis et al (1989), J. Lipid. Res., vol 30, 681-689), COX-2 (human; Ref: Riendeau et al (1997), Can. J. Physiol. Pharmacol., vol 75, 1088-1095 and Warner et al (1999), Pro. Natl. Acad. Sci. USA, vol 96, 7563-7568), 5-LO (human; Ref: Carter et al (1991), J. Pharmacol. Exp. Ther., vol 256, no 3, 929-937, and Safayhi et al (2000), Planta Medica, vol 66, 110-113), PBR (from rat; Le Fur et al (1983), Life Sci. USA, vol 33, 449-457), CysLT1 (human; Martin et al (2001), Biochem. Pharmacol., vol 62, no 9, 1193-1200) and CBR (from rat; Damm et al (1978), Res. Comm. Chem. Pathol. Pharmacol., vol 22, 597-600 and Speth et al (1979), Life Sci., vol 24, 351-357).
(§2) Binding assays were done for each of Compounds 1-12 and 46 using ACAT, COX-2, 5-LO, PBR and CysLT1 enzymes. The procedures used are based on the respective references mentioned above and the conditions are summarized in Tables 16 (enzyme assays) and 17 (radioligand receptor assays).
(§3) Binding Assays were done at constant concentration of the compound, in 1% DMSO as vehicle, and are specified below each enzyme/receptor type in Table 18. The results are expressed in Table 18 as percentage inhibition. Significance was obtained when a result was ≧50% binding or inhibition (underlined).

Cyclooxygenase-2 (COX-2) = target: T1, Cyclooxygenase-2 (COX-2) (Homo sapiens, UniProt P35354); test: COX-2 enzyme assay; type: biochemical; conditions: 4 μM compound, 1% DMSO; read-out: Percentage of inhibition or binding activity, COX-2 (4 μM)
T1 construct: host or cells: insect Sf21 cells
T1 sequence (P35354 18-604): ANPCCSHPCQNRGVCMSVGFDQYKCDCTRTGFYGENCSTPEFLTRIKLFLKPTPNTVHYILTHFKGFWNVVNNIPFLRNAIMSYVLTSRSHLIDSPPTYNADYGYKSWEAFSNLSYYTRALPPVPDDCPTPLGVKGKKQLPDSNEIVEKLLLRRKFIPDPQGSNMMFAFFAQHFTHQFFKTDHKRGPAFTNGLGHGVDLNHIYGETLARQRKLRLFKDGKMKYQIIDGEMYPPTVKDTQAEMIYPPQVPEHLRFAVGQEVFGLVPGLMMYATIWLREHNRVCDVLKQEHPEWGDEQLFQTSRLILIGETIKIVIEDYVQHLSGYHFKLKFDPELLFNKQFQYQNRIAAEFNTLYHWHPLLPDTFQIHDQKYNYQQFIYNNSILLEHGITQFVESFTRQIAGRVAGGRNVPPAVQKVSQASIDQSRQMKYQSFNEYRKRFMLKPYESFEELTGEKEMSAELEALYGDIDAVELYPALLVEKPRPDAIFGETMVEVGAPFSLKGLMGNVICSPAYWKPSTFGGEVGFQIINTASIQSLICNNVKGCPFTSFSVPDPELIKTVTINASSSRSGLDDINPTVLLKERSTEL
Description: Cyclooxygenase-2 (COX-2) enzyme is made only in response to injury or infection. It produces prostaglandins involved in inflammation and the immune response. Elevated levels of COX-2 in the body have been linked to cancer.
as §1, §2, §3

human 5-LO = target: T2, human 5-LO (Homo sapiens, UniProt P09917); test: 5-LO inhibition assay (EIA quantitation of LTB4); type: biochemical; conditions: 4 μM compound, 1% DMSO; read-out: Percentage of inhibition or binding activity, 5-LO (4 μM)
T2 construct: Human peripheral blood […] (PMNs) were isolated through a Ficoll-Paque density gradient; endogenous in cells; host or cells: human peripheral blood mononuclear cells (PBML/PMNs)
T2 sequence (P09917 1-674): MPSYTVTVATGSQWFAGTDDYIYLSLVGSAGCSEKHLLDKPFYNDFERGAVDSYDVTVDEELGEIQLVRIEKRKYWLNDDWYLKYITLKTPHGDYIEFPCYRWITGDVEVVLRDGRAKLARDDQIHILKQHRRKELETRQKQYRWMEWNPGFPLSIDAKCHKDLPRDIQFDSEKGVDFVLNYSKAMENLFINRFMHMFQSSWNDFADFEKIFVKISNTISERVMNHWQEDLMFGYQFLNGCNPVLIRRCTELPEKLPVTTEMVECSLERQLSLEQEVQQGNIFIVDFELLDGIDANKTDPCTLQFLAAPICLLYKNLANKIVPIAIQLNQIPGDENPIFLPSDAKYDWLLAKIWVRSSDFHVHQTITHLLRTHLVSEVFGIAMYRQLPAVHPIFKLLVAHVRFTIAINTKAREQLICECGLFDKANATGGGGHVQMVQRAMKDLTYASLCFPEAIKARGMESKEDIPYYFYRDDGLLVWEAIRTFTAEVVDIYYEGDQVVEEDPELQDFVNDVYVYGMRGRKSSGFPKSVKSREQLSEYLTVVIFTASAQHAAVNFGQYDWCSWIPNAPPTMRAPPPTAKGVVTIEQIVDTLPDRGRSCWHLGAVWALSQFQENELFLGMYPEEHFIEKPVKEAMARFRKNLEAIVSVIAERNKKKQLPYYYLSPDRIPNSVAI
Experimental: 5-Lipoxygenase (5-LO) catalyzes the oxidative metabolism of arachidonic acid to 5-hydroxyeicosatetraenoic acid (5-HETE), the initial reaction leading to formation of leukotrienes.
Human peripheral blood […] (PMNs) were isolated through a Ficoll-Paque density gradient. PMNs were stimulated by addition A23187 (30 μM final concentration). […] Following incubation, samples were neutralized with NaOH and centrifuged. Leukotriene B4 content was measured in the supernatant using an Enzyme Immunosorbant Assay (EIA) assay. The experiment was performed in triplicate.
The procedures used are based on the respective references mentioned above and the conditions are summarized in Tables 16 (enzyme assays) and 17 (radioligand receptor assays).
as §3

SRBC = test: Hemolysis of SRBC; type: cell-based; conditions: concentration necessary to achieve 50% hemolysis of SRBC

SMILES | Percentage of inhibition or binding activity, ACAT (10 μM) [1] [%] | inhibition at 4 µM (Cyclooxygenase-2 (COX-2)) [%] | inhibition at 4 µM (human 5-LO) [%] | Hemolysis (ED50 μg/mL) (SRBC) [µg/mL]
CC(C)=CCC/C(C)=C/CC/C(C)=C/CN1C(=O)c2cccc(O)c2N(C)c2c(O)cc(O)cc21 [Compound 2, 10-farnesyl-4,6,8-trihydroxy-5-methyl-5,10-dihydro-dibenzo[b,e][1,4]diazepin-11-one] | 51 | 92 | 93 | 5.12
CC(=O)Oc1cc(O)c2c(c1)N(CC=C(C)CCC=C(C)CCC=C(C)C)C(=O)c1cccc(OC(C)=O)c1N2 [Compound 11, 4,8-diacetoxy-10-farnesyl-6-hydroxy-5,10-dihydro-dibenzo[b,e][1,4]diazepin-11-one] | 71 | 57 | 97 | 9.8
CC(=O)Oc1cccc2c1Nc1c(OC(C)=O)cc(O)cc1N(CC=C(C)CCC=C(C)CCC=C(C)C)C2=O [Compound 10, 4,6-diacetoxy-10-farnesyl-8-hydroxy-5,10-dihydro-dibenzo[b,e][1,4]diazepin-11-one] | 90 | 45 | 97 | >64
CC(=O)Oc1cc(OC(C)=O)c2c(c1)N(CC=C(C)CCC=C(C)CCC=C(C)C)C(=O)c1cccc(O)c1N2 [Compound 9, 6,8-diacetoxy-10-farnesyl-4-hydroxy-5,10-dihydro-dibenzo[b,e][1,4]diazepin-11-one] | 77 | 44 | 96 | >64
CC(C)=CCC/C(C)=C/CC/C(C)=C/CN1C(=O)c2cccc(O)c2Nc2c(O)cc(O)cc21 [Compound 1, 10-farnesyl-4,6,8-trihydroxy-5,10-dihydrodibenzo[b,e][1,4]diazepin-11-one] | 90 | 96 | 99 | 7.6
CC(=O)Oc1cc(OC(C)=O)c2c(c1)N(CC=C(C)CCC=C(C)CCC=C(C)C)C(=O)c1cccc(OC(C)=O)c1N2 [Compound 12, 4,6,8-triacetoxy-10-farnesyl-5,10-dihydro-dibenzo[b,e][1,4]diazepin-11-one] | 83 | 30 | 86 | >64

Second part, led by results:

Percentage of inhibition or binding activity, ACAT (10 μM) [1] [%] | inhibition at 4 µM (Cyclooxygenase-2 (COX-2)) [%] | inhibition at 4 µM (human 5-LO) [%] | SMILES | Hemolysis (ED50 μg/mL) (SRBC) [µg/mL]
8 | 95 | 65 | CC(C)CCCC(C)CCCC(C)CCN1C(=O)c2cccc(O)c2Nc2c(O)cc(O)cc21 (stereo not drawn) [Compound 46, 10-(3,7,11-trimethyldodecyl)-4,6,8-trihydroxy-5,10-dihydro-dibenzo[b,e][1,4]diazepin-11-one] | 13.9
54 | 45 | 71 | COc1cc(OC)c2c(c1)N(C/C=C(\C)CC/C=C(\C)CCC=C(C)C)C(=O)c1cccc(O)c1N2 [Compound 6, 10-farnesyl-4-hydroxy-6,8-dimethoxy-5,10-dihydro-dibenzo[b,e][1,4]diazepin-11-one] | >64
65 | 78 | 98 | COc1cccc2c1Nc1c(O)cc(O)cc1N(C/C=C(\C)CC/C=C(\C)CCC=C(C)C)C2=O [Compound 4, 10-farnesyl-6,8-dihydroxy-4-methoxy-5,10-dihydro-dibenzo[b,e][1,4]diazepin-11-one] | >64
60 | 63 | 98 | COc1cc(O)cc2c1Nc1c(O)cccc1C(=O)N2C/C=C(\C)CC/C=C(\C)CCC=C(C)C [Compound 5, 10-farnesyl-4,8-dihydroxy-6-methoxy-5,10-dihydro-dibenzo[b,e][1,4]diazepin-11-one] | >64
63 | 76 | 72 | CC(C)=CCC/C(C)=C/CC/C(C)=C/CN1C(=O)c2cccc(O)c2N(Cc2ccccc2)c2c(O)cc(O)cc21 [Compound 3, 5-benzyl-10-farnesyl-4,6,8-trihydroxy-5,10-dihydro-dibenzo[b,e][1,4]diazepin-11-one] | >64
95 | 26 | 63 | COc1cccc2c1Nc1c(OC)cc(O)cc1N(CC=C(C)CCC=C(C)CCC=C(C)C)C2=O [Compound 7, 10-farnesyl-8-hydroxy-4,6-dimethoxy-5,10-dihydro-dibenzo[b,e][1,4]diazepin-11-one] | >64
40 | 19 | -13 | COc1cc(OC)c2c(c1)N(CC=C(C)CCC=C(C)CCC=C(C)C)C(=O)c1cccc(OC)c1N2 [Compound 8, 10-farnesyl-4,6,8-trimethoxy-5,10-dihydro-dibenzo[b,e][1,4]diazepin-11-one] | 
